{
  "source": "ChEMBL document CHEMBL6114979",
  "about": "“Discovery of 3-indolylbenzoquinone derivatives with therapeutic potential for breast cancer” (Bioorg Med Chem, 2025)",
  "key": {"4T1 [1]": {"tested_on": "4T1", "assay": "Antitumor activity against mouse 4T1 cells implanted in Balb/c mouse assessed as appearance of loosely arranged tumor cells at 35 mg/kg, ip administered once every 2 days for 14 days", "format": "functional, organism-based", "conditions": "time 14.0 day"}, "A549": {"tested_on": "A549", "assay": "Antiproliferative activity against human A549 cells assessed as inhibition of cell proliferation incubated for 48 hrs by CCK-8 assay", "format": "functional, cell-based", "conditions": "A549, 48 h"}, "[2]": {"assay": "Solubility of compound in water", "format": "physicochemical"}, "MDA-MB-231 [3]": {"tested_on": "MDA-MB-231", "assay": "Induction of apoptosis in human MDA-MB-231 cells assessed as early apoptotic cells at 1 uM incubated for 24 hrs by Annexin-V/PI staining based flow cytometric analysis (reference value: 2.69%)", "format": "functional"}, "MDA-MB-231 [4]": {"tested_on": "MDA-MB-231", "assay": "Induction of apoptosis in human MDA-MB-231 cells assessed as late apoptotic cells at 1 uM incubated for 24 hrs by Annexin-V/PI staining based flow cytometric analysis (reference value: 3.24%)", "format": "functional"}, "MDA-MB-231 [5]": {"tested_on": "MDA-MB-231", "assay": "Induction of apoptosis in human MDA-MB-231 cells assessed as necrotic cells at 1 uM incubated for 24 hrs by Annexin-V/PI staining based flow cytometric analysis (reference value: 0.71%)", "format": "functional"}, "4T1 [6]": {"tested_on": "4T1", "assay": "Antitumor activity against mouse 4T1 cells implanted in Balb/c mouse assessed as appearance of irregular necrotic foci at 25 mg/kg, ip administered once every 2 days for 14 days", "format": "functional, organism-based", "conditions": "time 14.0 day"}, "MDA-MB-231 [7]": {"tested_on": "MDA-MB-231", "assay": "Induction of cell cycle arrest in human MDA-MB-231 cells assessed as accumulation of cells at S phase at 1 uM incubated for 24 hrs by PI staining based flow cytometric analysis (reference value: 8.71%)", "format": "functional"}, "HUVEC": {"tested_on": "HUVEC", "assay": "Cytotoxicity against human HUVEC cells", "format": "toxicity, cell-based"}, "NIH3T3": {"tested_on": "NIH3T3", "assay": "Cytotoxicity against mouse 3T3 cells", "format": "toxicity, cell-based"}, "MDA-MB-231 [8]": {"tested_on": "MDA-MB-231", "assay": "Induction of apoptosis in human MDA-MB-231 cells assessed as increase in red fluorescence at 1 uM incubated for 24 hrs in presence of doxorubicin by fluorescence microscopic analysis", "format": "functional, cell-based"}, "[9]": {"assay": "Toxicity in Kunming mouse assessed as change in heart lesions at 240 to 469 mg/kg, ip administered for 14 days by H and E staining based analysis", "format": "organism-based", "conditions": "in vivo, 336 h, dose 240-469 mg/kg, time 14 day"}, "[10]": {"assay": "Toxicity in Kunming mouse assessed as change in spleen lesions at 240 to 469 mg/kg, ip administered for 14 days by H and E staining based analysis", "format": "organism-based", "conditions": "in vivo, 336 h, dose 240-469 mg/kg, time 14 day"}, "[11]": {"assay": "Toxicity in Kunming mouse assessed as change in kidney lesions at 240 to 469 mg/kg, ip administered for 14 days by H and E staining based analysis", "format": "organism-based", "conditions": "in vivo, 336 h, dose 240-469 mg/kg, time 14 day"}, "[12]": {"assay": "Toxicity in female Balb/c mouse implanted with mouse 4T1 cells assessed as mortality at 25 to 35 mg/kg, ip administered once every 2 days", "format": "organism-based", "conditions": "in vivo, 48 h, dose 25-35 mg/kg, time 2 day"}, "[13]": {"assay": "Toxicity in Kunming mouse assessed as appearance of mononuclear macrophages in alveolar lumen at 240 to 469 mg/kg, ip administered for 14 days by H and E staining based analysis", "format": "organism-based", "conditions": "in vivo, 336 h, dose 240-469 mg/kg, time 14 day"}, "[14]": {"assay": "Hepatotoxicity in Kunming mouse assessed as change in ALT level administered intraperitoneally for 14 days (reference value: 45.75 +/- 4.65 U)", "format": "toxicity", "conditions": "in vivo, ip, 336 h, time 14 day"}, "[15]": {"assay": "Hepatotoxicity in Kunming mouse assessed as change in AST level administered intraperitoneally for 14 days (reference value: 153.25 +/- 15.26 U)", "format": "toxicity", "conditions": "in vivo, ip, 336 h, time 14 day"}, "[16]": {"assay": "Nephrotoxicity in Kunming mouse assessed as change in CREA level administered intraperitoneally for 14 days (reference value: 16 +/- 2.45 U)", "format": "toxicity", "conditions": "in vivo, ip, 336 h, time 14 day"}, "[17]": {"assay": "Cardiotoxicity in Kunming mouse assessed as change in CK level administered intraperitoneally for 14 days (reference value: 851.75 +/- 87.81 U)", "format": "toxicity", "conditions": "in vivo, ip, 336 h, time 14 day"}, "[18]": {"assay": "Cardiotoxicity in Kunming mouse assessed as change in LDH level administered intraperitoneally for 14 days (reference value: 1253 +/- 67.28 U)", "format": "toxicity", "conditions": "in vivo, ip, 336 h, time 14 day"}, "4T1 [19]": {"tested_on": "4T1", "assay": "Antitumor activity against mouse 4T1 cells implanted in Balb/c mouse assessed as tumor suppression rate at 35 mg/kg, ip administered once every 2 days for 14 days relative to control", "format": "functional"}, "[20]": {"assay": "Toxicity in female Balb/c mouse implanted with mouse 4T1 cells assessed as abnormalities in kidney at 35 mg/kg, ip administered once every 2 days for 14 days", "format": "organism-based", "conditions": "in vivo, 336 h, time 14 day"}, "[21]": {"assay": "Toxicity in female Balb/c mouse implanted with mouse 4T1 cells assessed as abnormalities in lungs at 35 mg/kg, ip administered once every 2 days for 14 days", "format": "organism-based", "conditions": "in vivo, 336 h, time 14 day"}, "[22]": {"assay": "Toxicity in female Balb/c mouse implanted with mouse 4T1 cells assessed as abnormal behaviour at 80 mg/kg, IT administered once every 4 days in presence of olive oil", "format": "organism-based", "conditions": "in vivo, other, 96 h"}, "[23]": {"assay": "Toxicity in female Balb/c mouse implanted with mouse 4T1 cells assessed as mortality at 80 mg/kg, IT administered once every 4 days in presence of olive oil", "format": "organism-based", "conditions": "in vivo, other, 96 h"}, "4T1 [24]": {"tested_on": "4T1", "assay": "Antitumor activity against mouse 4T1 cells implanted in Balb/c mouse assessed as reduction in tumor size at 80 mg/kg, IT administered once every 4 days in presence of olive oil", "format": "functional, organism-based"}, "[25]": {"assay": "Toxicity in female Balb/c mouse implanted with mouse 4T1 cells assessed as change in body weight at 200 mg/kg, TOP administration once every 2 days for 14 days", "format": "organism-based", "conditions": "in vivo, topical_or_ocular, 336 h, time 14 day"}, "4T1 [26]": {"tested_on": "4T1", "assay": "Antitumor activity against mouse 4T1 cells implanted in Balb/c mouse assessed as lighter tumor at 200 mg/kg, TOP administration once every 2 days for 14 days", "format": "functional, organism-based", "conditions": "time 14.0 day"}, "4T1 [27]": {"tested_on": "4T1", "assay": "Antitumor activity against mouse 4T1 cells implanted in Balb/c mouse assessed as appearance of chromatin aggregation at 80 mg/kg, IT administered once every 4 days for 14 days in presence of olive oil by TEM analysis", "format": "functional, organism-based", "conditions": "time 14.0 day"}, "4T1 [28]": {"tested_on": "4T1", "assay": "Antitumor activity against mouse 4T1 cells implanted in Balb/c mouse assessed as appearance of chromatin aggregation at 25 to 35 mg/kg, ip administered once every 2 days for 14 days by TEM analysis", "format": "functional, organism-based", "conditions": "dose 25-35 mg/kg, time 14.0 day"}, "4T1 [29]": {"tested_on": "4T1", "assay": "Antitumor activity against mouse 4T1 cells implanted in Balb/c mouse assessed as appearance of mitochondrial swelling at 25 to 35 mg/kg, ip administered once every 2 days for 14 days by TEM analysis", "format": "functional, organism-based", "conditions": "dose 25-35 mg/kg, time 14.0 day"}, "4T1 [30]": {"tested_on": "4T1", "assay": "Antitumor activity against mouse 4T1 cells implanted in Balb/c mouse assessed as appearance of mitochondrial swelling at 80 mg/kg, IT administered once every 4 days for 14 days in presence of olive oil by TEM analysis", "format": "functional, organism-based", "conditions": "time 14.0 day"}, "4T1 [31]": {"tested_on": "4T1", "assay": "Antitumor activity against mouse 4T1 cells implanted in Balb/c mouse assessed as appearance of vacuolation at 25 to 35 mg/kg, ip administered once every 2 days for 14 days by TEM analysis", "format": "functional, organism-based", "conditions": "dose 25-35 mg/kg, time 14.0 day"}, "4T1 [32]": {"tested_on": "4T1", "assay": "Antitumor activity against mouse 4T1 cells implanted in Balb/c mouse assessed as damage in endoplasmic reticulum at 25 to 35 mg/kg, ip administered once every 2 days for 14 days by TEM analysis", "format": "functional, organism-based", "conditions": "dose 25-35 mg/kg, time 14.0 day"}, "4T1 [33]": {"tested_on": "4T1", "assay": "Antitumor activity against mouse 4T1 cells implanted in Balb/c mouse assessed as damage in endoplasmic reticulum at 80 mg/kg, IT administered once every 4 days for 14 days in presence of olive oil by TEM analysis", "format": "functional, organism-based", "conditions": "time 14.0 day"}},
  "note": "The source made the active and inactive calls. No cut-off for these calls is given here.",
  "data": [
    {"smiles": "Cc1[nH]c2ccccc2c1C1=C(F)C(=O)C(F)=C(N2CCOCC2)C1=O", "values": [
      {"measurement": "Activity", "setting": "4T1 [1]", "value": "Active"},
      {"measurement": "IC50", "setting": "A549", "value": 5.21, "unit": "µM"},
      {"measurement": "solubility", "setting": "[2]", "value": 28, "unit": "µg/mL"},
      {"measurement": "Activity", "setting": "MDA-MB-231 [3]", "value": 24.53, "unit": "%"},
      {"measurement": "Activity", "setting": "MDA-MB-231 [4]", "value": 26.4, "unit": "%"},
      {"measurement": "Activity", "setting": "MDA-MB-231 [5]", "value": 3.93, "unit": "%"},
      {"measurement": "Activity", "setting": "4T1 [6]", "value": "Active"},
      {"measurement": "Activity", "setting": "MDA-MB-231 [7]", "value": 4.21, "unit": "%"},
      {"measurement": "Activity", "setting": "HUVEC", "value": "Toxic"},
      {"measurement": "Activity", "setting": "NIH3T3", "value": "Toxic"},
      {"measurement": "Activity", "setting": "MDA-MB-231 [8]", "value": "Active; Compound Showed More Effect Than Mitoxantrone Treated Group"},
      {"measurement": "Activity", "setting": "[9]", "value": "Non-toxic"},
      {"measurement": "Activity", "setting": "[10]", "value": "Non-toxic"},
      {"measurement": "Activity", "setting": "[11]", "value": "Non-toxic"},
      {"measurement": "Activity", "setting": "[12]", "value": "Non-toxic"},
      {"measurement": "Activity", "setting": "[13]", "value": "Toxic"},
      {"measurement": "Activity", "setting": "[14]", "value": 28.8, "unit": "U/L"},
      {"measurement": "Activity", "setting": "[15]", "value": 106, "unit": "U/L"},
      {"measurement": "Activity", "setting": "[16]", "value": 12.25, "unit": "U"},
      {"measurement": "Activity", "setting": "[17]", "value": 812, "unit": "U/L"},
      {"measurement": "Activity", "setting": "[18]", "value": 1060, "unit": "U/L"},
      {"measurement": "Activity", "setting": "4T1 [19]", "value": 50, "unit": "%"},
      {"measurement": "Activity", "setting": "[20]", "value": "Non-toxic"},
      {"measurement": "Activity", "setting": "[21]", "value": "Non-toxic"},
      {"measurement": "Activity", "setting": "[22]", "value": "Non-toxic"},
      {"measurement": "Activity", "setting": "[23]", "value": "Non-toxic"},
      {"measurement": "Activity", "setting": "4T1 [24]", "value": "Active"},
      {"measurement": "Activity", "setting": "[25]", "value": "Non-toxic"},
      {"measurement": "Activity", "setting": "4T1 [26]", "value": "Active"},
      {"measurement": "Activity", "setting": "4T1 [27]", "value": "Active"},
      {"measurement": "Activity", "setting": "4T1 [28]", "value": "Active"},
      {"measurement": "Activity", "setting": "4T1 [29]", "value": "Active"},
      {"measurement": "Activity", "setting": "4T1 [30]", "value": "Active"},
      {"measurement": "Activity", "setting": "4T1 [31]", "value": "Active"},
      {"measurement": "Activity", "setting": "4T1 [32]", "value": "Active"},
      {"measurement": "Activity", "setting": "4T1 [33]", "value": "Active"}
    ]}
  ]
}
